Read-outs that look alike come from different tables or passages of the source.
Tests used:
[1] = molecular target: HCV NS3/4A protease genotype 1b (Hepatitis C virus genotype 1b, UniProt P26663); test: HCV NS3/4A protease time-resolved fluorescence (TRF) assay, Ki against genotype 1b; assay type: biochemical; settings: IC50 [gt-1b] (nM), NS3/4A genotype 1b, enzyme 0.2 nM
Procedure, shortened: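 Enzyme 0.2 nM 1b / 0.4 nM A156T / 0.025 nM 3a; 30 min preinc. w/ cpd; 25 nM TRF peptide; 2.5 h RT; ex 340/em 615 time-delayed; 4-param IC50 → Ki = IC50/(1+[S]/KM).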

HCV genotype 1b replicon = test: HCV replicon assay, genotype 1b replicon EC50; assay type: cell-based, Hepatitis C virus; settings: genotype 1b replicon, read-out: EC50 [gt-1b]
Procedure, shortened: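 Cells harbouring a stable replicon are grown under G418 selection, then plated with test compound in G418-free medium for 24-48 hours. After washing and lysis, RNA or luciferase signal is measured and expressed as percent of DMSO control to give EC50.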

SMILES	IC50 [1] [nM]	EC50 (HCV genotype 1b replicon; Hepatitis C virus) [nM]	IC50 ([1]; K+ salt) [nM]	EC50 (HCV genotype 1b replicon; Hepatitis C virus, K+ salt) [nM]	EC50 (HCV genotype 1b replicon) [nM]
Cc1nc2ccccc2c2c1O[C@]1(CC2)C[C@H]2C(=O)N[C@]3(C(=O)NS(=O)(=O)C4(C)CC4)C[C@H]3/C=C\CCCCC[C@H](NC(=O)O[C@H]3C[C@H]4CC[C@@H]3C4)C(=O)N2C1 [Example 181, (1R,2S,4S)-bicyclo[2.2.1]hept-2-yl [(2R,6S,12Z,13aS,14aR,16aS)-5′-methyl-14a-{[(1-methylcyclopropyl)sulfonyl]carbamoyl}-5,16-dioxo-1,1′,2′,5,6,7,8,9,10,11,13a,14,14a,15,16,16a-hexadecahydrospiro[cyclopropa[e]pyrrolo[1,2-a][1,4]diazacyclopentadecine-2,3′-pyrano[2,3-c]quinolin]-6-yl]carbamate]	0.017	0.39			
Cc1nc2ccc(Cl)cc2c2c1O[C@]1(CC2)C[C@H]2C(=O)N[C@]3(C(=O)NS(=O)(=O)C4(C)CC4)C[C@H]3/C=C\CCCCC[C@H](NC(=O)OC3CCCC3)C(=O)N2C1 [Example 182, cyclopentyl [(2R,6S,12Z,13aS,14aR,16aS)-9′-chloro-5′-methyl-14a-{[(1-methylcyclopropyl)sulfonyl]carbamoyl}-5,16-dioxo-1,1′,2′,5,6,7,8,9,10,11,13a,14,14a,15,16,16a-hexadecahydrospiro[cyclopropa[e]pyrrolo[1,2-a][1,4]diazacyclopentadecine-2,3′-pyrano[2,3-c]quinolin]-6-yl]carbamate]			0.009	1.7	
Cc1nc2ccc(Cl)cc2c2c1O[C@]1(CC2)C[C@H]2C(=O)N[C@]3(C(=O)NS(=O)(=O)C4(C)CC4)C[C@H]3/C=C\CCCCC[C@H](NC(=O)OC(C)C)C(=O)N2C1 [Example 183, propan-2-yl [(2R,6S,12Z,13aS,14aR,16aS)-9′-chloro-5′-methyl-14a-{[(1-methylcyclopropyl)sulfonyl]carbamoyl}-5,16-dioxo-1,1′,2′,5,6,7,8,9,10,11,13a,14,14a,15,16,16a-hexadecahydrospiro[cyclopropa[e]pyrrolo[1,2-a][1,4]diazacyclopentadecine-2,3′-pyrano[2,3-c]quinolin]-6-yl]carbamate]			0.008	1.63	
Cc1nc2ccc(Cl)cc2c2c1O[C@]1(CC2)C[C@H]2C(=O)N[C@]3(C(=O)NS(=O)(=O)C4(C)CC4)C[C@H]3/C=C\CCCCC[C@H](NC(=O)OC3(C)CC3)C(=O)N2C1 [Example 184, 1-methylcyclopropyl [(2R,6S,12Z,13aS,14aR,16aS)-9′-chloro-5′-methyl-14a-{[(1-methylcyclopropyl)sulfonyl]carbamoyl}-5,16-dioxo-1,1′,2′,5,6,7,8,9,10,11,13a,14,14a,15,16,16a-hexadecahydrospiro[cyclopropa[e]pyrrolo[1,2-a][1,4]diazacyclopentadecine-2,3′-pyrano[2,3-c]quinolin]-6-yl]carbamate]			0.004	4.22	
Cc1nc2ccc(Cl)cc2c2c1O[C@]1(CC2)C[C@H]2C(=O)N[C@]3(C(=O)NS(=O)(=O)C4(C)CC4)C[C@H]3/C=C\CCCCC[C@H](NC(=O)OC3CCC3)C(=O)N2C1 [Example 185, cyclobutyl [(2R,6S,12Z,13aS,14aR,16aS)-9′-chloro-5′-methyl-14a-{[(1-methylcyclopropyl)sulfonyl]carbamoyl}-5,16-dioxo-1,1′,2′,5,6,7,8,9,10,11,13a,14,14a,15,16,16a-hexadecahydrospiro[cyclopropa[e]pyrrolo[1,2-a][1,4]diazacyclopentadecine-2,3′-pyrano[2,3-c]quinolin]-6-yl]carbamate]			0.005	4.14	
CC1(C)CCCC1OC(=O)N[C@H]1CCCCC/C=C\[C@@H]2C[C@@]2(C(=O)NS(=O)(=O)C2(C)CC2)NC(=O)[C@@H]2C[C@]3(CCc4c(c(C5CC5)nc5c(F)cccc45)O3)CN2C1=O (stereo partly drawn) [Example 187, 2,2-dimethylcyclopentyl [(2R,6S,12Z,13aS,14aR,16aS)-5′-cyclopropyl-7′-fluoro-14a-{[(1-methylcyclopropyl)sulfonyl]carbamoyl}-5,16-dioxo-1,1′,2′,5,6,7,8,9,10,11,13a,14,14a,15,16,16a-hexadecahydrospiro[cyclopropa[e]pyrrolo[1,2-a][1,4]diazacyclopentadecine-2,3′-pyrano[2,3-c]quinolin]-6-yl]carbamate]	0.023	8.33			
Cc1nc2cc(F)c(F)cc2c2c1O[C@]1(CC2)C[C@H]2C(=O)N[C@]3(C(=O)NS(=O)(=O)C4(C)CC4)C[C@H]3/C=C\CCCCC[C@H](NC(=O)OC(C)(C)C)C(=O)N2C1 [Example 188, tert-butyl [(2R,6S,12Z,13aS,14aR,16aS)-8′,9′-difluoro-5′-methyl-14a-{[(1-methylcyclopropyl)sulfonyl]carbamoyl}-5,16-dioxo-1,1′,2′,5,6,7,8,9,10,11,13a,14,14a,15,16,16a-hexadecahydrospiro[cyclopropa[e]pyrrolo[1,2-a][1,4]diazacyclopentadecine-2,3′-pyrano[2,3-c]quinolin]-6-yl]carbamate]	0.006	3.85			
Cc1nc2ccc(Cl)cc2c2c1O[C@]1(CC2)C[C@H]2C(=O)N[C@]3(C(=O)NS(=O)(=O)C4(C)CC4)C[C@H]3/C=C\CCCCC[C@H](NC(=O)OC3CCCCC3)C(=O)N2C1 [Example 190, cyclohexyl [(2R,6S,12Z,13aS,14aR,16aS)-9′-chloro-5′-methyl-14a-{[(1-methylcyclopropyl)sulfonyl]carbamoyl}-5,16-dioxo-1,1′,2′,5,6,7,8,9,10,11,13a,14,14a,15,16,16a-hexadecahydrospiro[cyclopropa[e]pyrrolo[1,2-a][1,4]diazacyclopentadecine-2,3′-pyrano[2,3-c]quinolin]-6-yl]carbamate]			0.009	13.2	
CC1(S(=O)(=O)NC(=O)[C@@]23C[C@H]2/C=C\CCCCC[C@H](NC(=O)OC2(C4CC4)CC2)C(=O)N2C[C@@]4(CCc5c(c(C6CC6)nc6c(F)cccc56)O4)C[C@H]2C(=O)N3)CC1 [Example 191, 1,1′-bi(cyclopropyl)-1-yl [(2R,6S,12Z,13aS,14aR,16aS)-5′-cyclopropyl-7′-fluoro-14a-{[(1-methylcyclopropyl)sulfonyl]carbamoyl}-5,16-dioxo-1,1′,2′,5,6,7,8,9,10,11,13a,14,14a,15,16,16a-hexadecahydrospiro[cyclopropa[e]pyrrolo[1,2-a][1,4]diazacyclopentadecine-2,3′-pyrano[2,3-c]quinolin]-6-yl]carbamate]	0.012	3.59			
CC(C)(C)COC(=O)N[C@H]1CCCCC/C=C\[C@@H]2C[C@@]2(C(=O)NS(=O)(=O)C2(C)CC2)NC(=O)[C@@H]2C[C@]3(CCc4c(c(C5CC5)nc5c(F)cccc45)O3)CN2C1=O [Example 192, 2,2-dimethylpropyl [(2R,6S,12Z,13aS,14aR,16aS)-5′-cyclopropyl-7′-fluoro-14a-{[(1-methylcyclopropyl)sulfonyl]carbamoyl}-5,16-dioxo-1,1′,2′,5,6,7,8,9,10,11,13a,14,14a,15,16,16a-hexadecahydrospiro[cyclopropa[e]pyrrolo[1,2-a][1,4]diazacyclopentadecine-2,3′-pyrano[2,3-c]quinolin]-6-yl]carbamate]	0.019	9.61			
Cc1nc2cc(F)c(F)cc2c2c1O[C@]1(CC2)C[C@H]2C(=O)N[C@]3(C(=O)NS(=O)(=O)C4(C)CC4)C[C@H]3/C=C\CCCCC[C@H](NC(=O)OC3CCCC3)C(=O)N2C1 [Example 193, cyclopentyl [(2R,6S,12Z,13aS,14aR,16aS)-8′,9′-difluoro-5′-methyl-14a-{[(1-methylcyclopropyl)sulfonyl]carbamoyl}-5,16-dioxo-1,1′,2′,5,6,7,8,9,10,11,13a,14,14a,15,16,16a-hexadecahydrospiro[cyclopropa[e]pyrrolo[1,2-a][1,4]diazacyclopentadecine-2,3′-pyrano[2,3-c]quinolin]-6-yl]carbamate]			0.007	31.1	
Cc1nc2ccccc2c2c1O[C@]1(CC2)C[C@H]2C(=O)N[C@]3(C(=O)NS(=O)(=O)C4(C)CC4)C[C@H]3/C=C\CCCCC[C@H](NC(=O)OC3CCC(F)(F)CC3)C(=O)N2C1 [Example 196, 4,4-difluorocyclohexyl [(2R,6S,12Z,13aS,14aR,16aS)-5′-methyl-14a-{[(1-methylcyclopropyl)sulfonyl]carbamoyl}-5,16-dioxo-1,1′,2′,5,6,7,8,9,10,11,13a,14,14a,15,16,16a-hexadecahydrospiro[cyclopropa[e]pyrrolo[1,2-a][1,4]diazacyclopentadecine-2,3′-pyrano[2,3-c]quinolin]-6-yl]carbamate]	0.003	5.53			
Cc1nc2ccccc2c2c1O[C@]1(CC2)C[C@H]2C(=O)N[C@]3(C(=O)NS(=O)(=O)C4(C)CC4)C[C@H]3/C=C\CCCCC[C@H](NC(=O)OC(C)C(F)(F)F)C(=O)N2C1 (stereo partly drawn) [Example 197, 1,1,1-trifluoropropan-2-yl [(2R,6S,12Z,13aS,14aR,16aS)-5′-methyl-14a-{[(1-methylcyclopropyl)sulfonyl]carbamoyl}-5,16-dioxo-1,1′,2′,5,6,7,8,9,10,11,13a,14,14a,15,16,16a-hexadecahydrospiro[cyclopropa[e]pyrrolo[1,2-a][1,4]diazacyclopentadecine-2,3′-pyrano[2,3-c]quinolin]-6-yl]carbamate]	0.004				9.87

— patent US8987195B2 (priority 2012, dated 2015)
